Data on 86 compounds can be found in PubChem BioAssay AID2305 (GlaxoSmithKline (GSK), 2010).

The subject of this experiment is P. falciparum 3D7 growth, pLDH absorbance. Nature of the experiment: P. falciparum 3D7 growth inhibition, dose response, strain 3D7 (AID 2305).

Usually IC50 stands for the midpoint of a concentration-inhibition curve. Lower therefore signals greater potency in that assay.

`CN1CCN(c2nsc3ccc(-c4ccc(NC(=O)Nc5cc(C(F)(F)F)ccc5F)cc4)cc23)CC1` displayed a concentration for half-maximal inhibition (IC50) of 240 nM. Then `O=C(Nc1ccsc1)Nc1cccc(-c2ccc(-c3nc4ccc(C(F)(F)F)cc4[nH]3)cc2)c1`, with 350 nM; and `COc1ccc(O)cc1/C=N/Nc1ccnc2cc(Cl)ccc12`, with 540 nM. `NC1=NC2(CCCCC2)N(OCC2CCCCC2)C(N)=N1` came in with a concentration for half-maximal inhibition (IC50) of 150 nM. Then `COc1c(C)cc(I)cc1CNCCCNc1cc(=O)c2ccccc2[nH]1`, with 1280 nM; and `COc1ccc(CN2CCCN(Cc3ccc(C(=O)Nc4ccc(Cl)cc4)cc3)CC2)cc1`, with 920 nM. `O=C(c1ccc([N+](=O)[O-])o1)N1CCC(c2cn(Cc3cccc(F)c3)c3ccccc23)CC1` yielded an IC50 of 640 nM. Regarding `O=S(=O)(NCCN1CCCC1)c1ccc(-c2cccc(CNCc3ccsc3)c2)s1`, the half-maximal inhibitory concentration (IC50) was 900 nM. This IC50 and that of the compound before are within 1.5-fold of each other. The result for `CN(C)C(=O)n1cnc(S(=O)(=O)N(C)c2ccc(Cl)cc2)n1` reads 770 nM; that for `CCN(CC)CCn1c(=N)n(CC(=O)c2ccc(-c3ccccc3)cc2)c2ccccc21`, 1140 nM. Then `O=C(CCNc1ccnc(NCCc2ccccc2)n1)Nc1ccccc1`, with 840 nM; and `COc1ccc(CCNc2nc(SCc3ccccc3Cl)nc3ccccc23)cc1OC`, with 940 nM; and `CCNC(=O)c1cc(S(=O)(=O)N2CCN(c3ccccn3)CC2)cs1`, with 870 nM. Then `O=c1cc(NCCCNCc2sc(Br)c(Br)c2Br)[nH]c2ccccc12`, with 1010 nM; and `CS(=O)(=O)Nc1ccc2[nH]cc(C3CCN(CC4CCC(NC(=O)/C=C/c5ccccc5Cl)CC4)CC3)c2c1` (stereo unspecified), with 790 nM; and `O=C(NCc1cccs1)[C@H](Cc1ccccc1)Nc1ccnc(NCCc2ccccc2)n1`, with 1050 nM. The compound `c1cc(CNCc2ccc3c(c2)OCO3)cc(-c2cccc(CNc3ccc4ncccc4c3)c2)c1` returned an IC50 of 760 nM. In turn, `Nc1ncc(-c2ccc3nccc(-c4ccncc4)c3c2)cc1S(=O)(=O)N1CCOCC1` had an IC50 of 870 nM. The result for `CCc1cc2c(N)nc(N)nc2nc1-c1ccccc1` reads 950 nM; that for `O=C(NC1CCC(N2CCC3(CC2)C(=O)NCN3c2ccccc2)CC1)c1cc2ccccc2[nH]1` (stereo unspecified), 680 nM; that for `O=C(Nc1ccc(Cl)cc1)Nc1ccc(OCC(O)CN2CCCCC2)cc1` (stereo unspecified), 1160 nM. The result for `OC(CNc1ccnc(Nc2cccc(OCCCN3CCOCC3)c2)n1)c1ccccc1` (stereo unspecified) reads 920 nM; that for `Cc1ccc(CNC(=O)[C@H](CC(C)C)Nc2cc(C)nc(NCc3ccccc3C)n2)cc1`, 950 nM; that for `FC(F)(F)c1ccc(-c2cncc(-c3ccc(C(F)(F)F)cc3)n2)cc1`, 760 nM. Then `COc1cc(C2Nc3ccc4ccccc4c3C3=C2C(=O)CC(C)(C)C3)ccc1Oc1ccc([N+](=O)[O-])cc1C#N` (stereo unspecified), with 660 nM; and `CN1CCN(c2ccc3nc(-c4ccc5nc(-c6ccc([N+](=O)[O-])c(N)c6)[nH]c5c4)[nH]c3c2)CC1`, with 100 nM. In the case of `Cc1[nH]c(C)c(-c2ccc(S(=O)(=O)c3ccc(Cl)cc3)cc2)c(=O)c1Br`, the concentration for half-maximal inhibition (IC50) was determined as 40 nM. `OCCCCCCNc1ccnc2[nH]c3ccc(I)cc3c12`: the concentration for half-maximal inhibition (IC50) stood at 1070 nM. The result for `c1ccc(CN2CCN(CCNc3c4ccccc4nc4ccccc34)CC2)cc1` reads 880 nM; that for `CCOC(=O)C1CCN(CCOc2cc(NC(=O)/C=C/c3ccccc3Cl)ccc2Br)CC1`, 990 nM; that for `CCOC(=O)CCc1cc(F)c(F)c(OC[C@H](O)CNC(C)(C)C(O)c2ccc3ccccc3c2)c1` (stereo partly specified), 860 nM.

Compound `O=C(Nc1cccnc1)c1cn(-c2ccccc2)nc1-c1cccs1` came in with a concentration for half-maximal inhibition (IC50) of 870 nM. In the case of `Cc1cc(NCCC(=O)Nc2ccccc2)nc(NCCc2ccc(F)cc2)n1`, the IC50 was determined as 1130 nM. The IC50 values of the last two compounds are within 1.5-fold of each other. As to `CC(C)(CNCc1ccc(Cl)c(Cl)c1)c1nc(-c2ccc(Cl)c(O)c2)c(-c2ccncc2)[nH]1`, the IC50 was 760 nM. `C[C@H](Cc1ccc(OCCCCCOc2ccc(C[C@@H](C)NC[C@H](O)c3cccc(Cl)c3)cc2)cc1)NC[C@H](O)c1cccc(Cl)c1` came in with a half-inhibitory concentration (IC50) of 190 nM. This IC50 is about 4-fold lower than that of the compound before. Take `NC(=O)c1cccc(C(=O)Nc2cccc(-c3ccc(-c4nc5ccccc5[nH]4)s3)c2)c1`: the IC50 was found to be 350 nM. The result for `COc1cccc(C2CCN(CCN3CCC(NC(=O)c4ccc(-c5ccc(C#N)cc5)cc4)CC3)CC2)c1` reads 700 nM; that for `CN1CCC(C(=O)N(Cc2ccc(-c3ccc(CNCCc4ccc(S(C)(=O)=O)cc4)cn3)cc2)C2CCN(Cc3ccccc3)CC2)CC1`, 670 nM; that for `CCCCCN1CCC(NC(=O)c2ccc(C(=O)Nc3ccc(C(C)C)cc3)cc2)C1` (stereo unspecified), 950 nM. Then `CN(C)CCCNc1ncnc2c1[nH]c1ccc(F)cc12`, with 730 nM; and `CN(C)CCN(C)Cc1ccc(-c2ccc(NC(=O)c3cccc(Cl)c3)cc2)cc1`, with 1140 nM; and `CN(C)C(CNC(=O)c1cc(-c2ccncc2)c(-c2ccc(NC(=O)Nc3cccc(Cl)c3)cc2)o1)c1ccccc1` (stereo unspecified), with 180 nM. Then `O=C(Nc1ccc(I)cc1)N1CCc2sccc2C1CN1CCCCC1` (stereo unspecified), with 1200 nM; and `COc1ccc(CC(C)NCC(O)c2cccc(C(F)(F)F)c2)cc1` (stereo unspecified), with 1580 nM; and `Cc1cc(N[C@@H](Cc2ccccc2)C(=O)NCc2cccs2)nc(NCCc2ccc(F)cc2)n1`, with 850 nM. Compound `O=C(N[C@@H](Cc1ccccc1)C(=O)O)c1cc(-c2ccc(F)cc2)no1` (tested in a mixture with another compound) yielded an IC50 of 800 nM. The result for `Nc1ncc(-c2ccc3nccc(-c4ccncc4)c3c2)cc1S(=O)(=O)N1CCCCC1` reads 580 nM. The result for `O=C(Nc1ccc(Cl)c(Cl)c1)Nc1ccc2c(c1)CCNCC2` reads 530 nM. The result for `CC(C)C[C@H](NC(=O)c1cc2ccccc2s1)C(=O)N[C@H]1CCN(Cc2ccc(I)c(OC3CCN(C)C3)c2)C1` (stereo partly specified) reads 920 nM; that for `O=C(Nc1ccc(Oc2cccnc2)cc1)C1CCN(Cc2cc(Cl)ccc2O)CC1`, 1350 nM; that for `O=C(Nc1ccc(-c2ccc(-c3nc4ccccc4[nH]3)s2)cc1)Nc1ccc(Cl)c(Cl)c1`, 160 nM.

`O=C(N1CCN(c2ccc(C(F)(F)F)cc2[N+](=O)[O-])CC1)C(Cl)(Cl)Cl` had a concentration for half-maximal inhibition (IC50) of 710 nM. Compound `COc1ccc2nccc([C@@H](O)CN3CCC(NCCOc4ccc(F)cc4Cl)CC3)c2c1` displayed a half-maximal inhibitory concentration (IC50) of 280 nM. The compound `O=C(NCc1ccccc1)Nc1cccc(-c2cccc(-c3nc4ccc(C(F)(F)F)cc4[nH]3)c2)c1` displayed a 50% inhibitory concentration (IC50) of 260 nM. Regarding `CCCN(CCCCCCN(CCC)CCc1ccc(O)c(O)c1)CCc1ccc(O)cc1`, the half-inhibitory concentration (IC50) was found to be 1010 nM.

`O=C(NCc1cccc(C(F)(F)F)c1)c1ccc(CNC(=O)c2ccc(O)c(-c3ccc(Cl)c(Cl)c3)c2)cc1` yielded an IC50 of 840 nM.

For `COc1ccc(N2CCN(CCCCNC(=O)c3ccc(NC(=O)c4ccc(OC(F)(F)F)cc4)cc3)CC2)c(OC)c1`, the concentration for half-maximal inhibition (IC50) came out at 580 nM. This IC50 and that of the compound before are within 1.5-fold of each other. The result for `CCCCN1CC[C@@H](CCC(O)c2ccnc3ccc(OCCC(C)C)cc23)[C@@H](CC)C1` (stereo partly specified) reads 990 nM. For the compound `Cc1cccc(C)c1N1CCN(C2CCC(NC(=O)c3cc4ccccc4[nH]3)CC2)CC1` (stereo unspecified), the IC50 worked out at 600 nM.

`O=C(NC1CCN(Cc2ccccc2O)C1)c1cccc(C(F)(F)F)c1` (stereo unspecified) yielded a 50% inhibitory concentration (IC50) of 730 nM. The IC50 values of the last two compounds are within 1.5-fold of each other. Consider `Nc1nc(N)c2c(ccc3[nH]c(-c4ccccc4Cl)nc32)n1`, for which the 50% inhibitory concentration (IC50) is 230 nM. For the compound `CC1(C)N=C(N)N=C(N)N1c1ccc([N+](=O)[O-])cc1`, the IC50 was found to be 230 nM. Then `CCCc1cc(Cc2cnc(N)nc2N)cc(CCC)c1OCCCCC(=O)O`, with 200 nM; and `CCc1cccc2c(C#N)cn(CC(=O)Nc3ccc(OC)cc3)c12`, with 770 nM. Then `O[C@@H](c1ccccc1)[C@@H]1CN(Cc2ccccc2)CC[C@@]1(O)c1ccccc1`, with 850 nM; and `CN(C)S(=O)(=O)c1cc(-c2ccc3nccc(-c4cccc(S(N)(=O)=O)c4)c3c2)cnc1N`, with 250 nM; and `C/C(=C\C(=O)NC1CC1)c1ccccc1OCc1ccccc1`, with 500 nM. Turning to `CCC[C@@H]([C@@H](CC1CCCCC1)C(=O)N[C@H](C(=O)Nc1ccccn1)[C@H](C)CC)N(O)C=O`, the IC50 came out at 530 nM. This IC50 and that of the compound before are within 1.5-fold of each other. As to `Cn1nccc1C(=O)NCCNCc1cccc(-c2ccc(-c3nc4ccccc4[nH]3)s2)c1`, the half-maximal inhibitory concentration (IC50) was 300 nM. The result for `Cc1ccc(Nc2ccnc(Nc3ccc(C)c(F)c3)n2)cc1O` reads 760 nM; that for `CC[C@H](C)CNC(=O)c1cncc(-c2ccc(CN(C)C3CCN(C)CC3)cc2)c1`, 990 nM. As to `O=C(Nc1ccc(C(=O)Oc2ccc3ccccc3c2)cc1)N[C@@H](Cc1ccc(O)cc1)C(=O)NC1CCN(Cc2ccc(O)cc2)C1` (stereo partly specified), the IC50 stood at 1060 nM. In turn, `CC(C)C[C@H](NC(=O)c1ccc(OCCN2CCOCC2)cc1)C(=O)N[C@H](/C=N/N1CC(=O)NC1=O)CCc1ccccc1` displayed an IC50 of 280 nM. As to `COc1ccc2nccc(NN=Cc3cccc(F)c3)c2c1`, the half-maximal inhibitory concentration (IC50) worked out at 750 nM.

Take `O=c1cc(NCCCNCc2ccc(Cl)c(Cl)c2)[nH]c2cc(F)cc(F)c12`: the concentration for half-maximal inhibition (IC50) amounted to 680 nM.

For the compound `CS(=O)(=O)CCNCc1nc(-c2ccc3ncnc(Nc4ccc(OCc5ccccc5)c(Cl)c4)c3c2)cs1`, the 50% inhibitory concentration (IC50) is 800 nM. In the case of `O=C(/C=C/c1ccc(Cl)c(Cl)c1)NCCCCCN1CCC(NC(=O)Nc2ccc(Br)cc2)CC1`, the IC50 was determined as 570 nM. In turn, `Cc1[nH]c(C)c(-c2ccc(C(F)(F)F)cc2)c(=O)c1Br` came in with an IC50 of 140 nM. This IC50 lies about 4.1-fold lower than the previous one. Then `O=C(Nc1cccc(CN2CCCN(Cc3ccc(O)cc3)CC2)c1)c1ccc2ccccc2c1`, with 370 nM.

`CC(Cc1ccc(S(=O)(=O)N(C(C)C)C(C)C)cc1)NCC(O)c1cccc(C(F)(F)F)c1` (stereo unspecified) came in with an IC50 of 690 nM. The result for `CCCCCCCC1CCN(C[C@H](O)c2ccnc3ccc(OC)cc23)CC1` reads 960 nM; that for `CC(=O)Nc1cccc(C(=O)Nc2cccc(-c3ccc(-c4nc5ccc(C(F)(F)F)cc5[nH]4)s3)c2)c1`, 650 nM. Then `CC(=O)Nc1ccc(OCCCCN(Cc2ccccc2C(F)(F)F)c2ccc(C#N)c(C(F)(F)F)c2)cc1`, with 1390 nM. Then `CC(C(=O)OCCOCn1cnc2c(=O)[nH]c(N)nc21)N(C)C(=O)OC(C)(C)C` (stereo unspecified), with 1000 nM. As for `CCNc1cc(C(=O)N[C@@H](Cc2ccccc2)[C@H](O)CNCc2cc(C#N)ccc2OC)cc(N2CCCC2=O)c1`, the concentration for half-maximal inhibition (IC50) worked out at 1230 nM. This IC50 and that of the compound before are within 1.5-fold of each other. In the case of `CCc1cccc(-n2nc(OCC(=O)NC3CCCC3)c3cccnc32)c1`, the half-inhibitory concentration (IC50) came out at 930 nM. The IC50 values of the last two compounds are within 1.5-fold of each other.
